These results are taken from patent US8471005B2 (Cephalon, Inc., priority 2008, dated 2013).

SMILES strings stand for the structures. Where two headings read alike, the source gives them in different places.

One test has as its target T1, ALK (Homo sapiens, UniProt Q9UM73).
T1 construct: host or cells: baculovirus expression system
The experiment in a line: ALK Kinase Assay (ELISA/TRF, PLC-γ substrate). Type of test: biochemical. Conditions: read-out: ALK Potency. An outline of the steps:
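First, plates are coated with substrate (phospholipase C-γ, 10 μg/mL, TBS). Next, 30 ng/ml ALK initiates phosphorylation for 15 min at 37° C. Then Eu-N1 PT66 antibody is added for detection, and a nonlinear dose-response fit of percent inhibition yields IC50.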

For another test, the target named is T2, JAK2 (Homo sapiens, UniProt O60674).
T2 construct: host or cells: baculovirus expression system
The experiment in a line: Recombinant Human JAK2 Kinase Assay (TRF). Type of test: biochemical. The conditions noted are these: read-out: JAK2 Potency. The method, then: Compounds were tested for their ability to inhibit the kinase activity of baculovirus-expressed JAK2 using the TRF detection system. […] The plates were coated first with 100 μL/well of 10 μg/mL Neutravidin (Pierce #31000, Rockford, Ill.) in TBS at 37° C. for 2 hours, followed by 100 μL/well of 1 μg/mL 15-mer peptide substrate (biotinyl-amino-hexanoyl-[…]-amide, Infinity Biotech Research and Resource, Aston, Pa.) at 37° C. for another hour. The JAK2 assay mixture (total volume=100 μL/well) consisting of 20 mM HEPES (pH 7.2), 0.2 μM ATP, 1 mM MnCl2, 0.1% BSA, and test compound (diluted in DMSO; 2.5% DMSO final in assay) was then added to the assay plate. Enzyme (15 ng/ml JAK2) was added and the reaction was allowed to proceed at room temperature for 20 minutes. Detection of the phosphorylated product was performed by adding 100 μL/well of Eu—N1 labeled PY100 antibody (PerkinElmer Life Sciences #AD0041, Boston, Mass.).

The mark [1] stands for this setting: ALK kinase inhibition, 1 μM ATP.
[2] abbreviates: JAK2 kinase inhibition, 0.2 μM ATP.

T1 sequence (Q9UM73 19-1620): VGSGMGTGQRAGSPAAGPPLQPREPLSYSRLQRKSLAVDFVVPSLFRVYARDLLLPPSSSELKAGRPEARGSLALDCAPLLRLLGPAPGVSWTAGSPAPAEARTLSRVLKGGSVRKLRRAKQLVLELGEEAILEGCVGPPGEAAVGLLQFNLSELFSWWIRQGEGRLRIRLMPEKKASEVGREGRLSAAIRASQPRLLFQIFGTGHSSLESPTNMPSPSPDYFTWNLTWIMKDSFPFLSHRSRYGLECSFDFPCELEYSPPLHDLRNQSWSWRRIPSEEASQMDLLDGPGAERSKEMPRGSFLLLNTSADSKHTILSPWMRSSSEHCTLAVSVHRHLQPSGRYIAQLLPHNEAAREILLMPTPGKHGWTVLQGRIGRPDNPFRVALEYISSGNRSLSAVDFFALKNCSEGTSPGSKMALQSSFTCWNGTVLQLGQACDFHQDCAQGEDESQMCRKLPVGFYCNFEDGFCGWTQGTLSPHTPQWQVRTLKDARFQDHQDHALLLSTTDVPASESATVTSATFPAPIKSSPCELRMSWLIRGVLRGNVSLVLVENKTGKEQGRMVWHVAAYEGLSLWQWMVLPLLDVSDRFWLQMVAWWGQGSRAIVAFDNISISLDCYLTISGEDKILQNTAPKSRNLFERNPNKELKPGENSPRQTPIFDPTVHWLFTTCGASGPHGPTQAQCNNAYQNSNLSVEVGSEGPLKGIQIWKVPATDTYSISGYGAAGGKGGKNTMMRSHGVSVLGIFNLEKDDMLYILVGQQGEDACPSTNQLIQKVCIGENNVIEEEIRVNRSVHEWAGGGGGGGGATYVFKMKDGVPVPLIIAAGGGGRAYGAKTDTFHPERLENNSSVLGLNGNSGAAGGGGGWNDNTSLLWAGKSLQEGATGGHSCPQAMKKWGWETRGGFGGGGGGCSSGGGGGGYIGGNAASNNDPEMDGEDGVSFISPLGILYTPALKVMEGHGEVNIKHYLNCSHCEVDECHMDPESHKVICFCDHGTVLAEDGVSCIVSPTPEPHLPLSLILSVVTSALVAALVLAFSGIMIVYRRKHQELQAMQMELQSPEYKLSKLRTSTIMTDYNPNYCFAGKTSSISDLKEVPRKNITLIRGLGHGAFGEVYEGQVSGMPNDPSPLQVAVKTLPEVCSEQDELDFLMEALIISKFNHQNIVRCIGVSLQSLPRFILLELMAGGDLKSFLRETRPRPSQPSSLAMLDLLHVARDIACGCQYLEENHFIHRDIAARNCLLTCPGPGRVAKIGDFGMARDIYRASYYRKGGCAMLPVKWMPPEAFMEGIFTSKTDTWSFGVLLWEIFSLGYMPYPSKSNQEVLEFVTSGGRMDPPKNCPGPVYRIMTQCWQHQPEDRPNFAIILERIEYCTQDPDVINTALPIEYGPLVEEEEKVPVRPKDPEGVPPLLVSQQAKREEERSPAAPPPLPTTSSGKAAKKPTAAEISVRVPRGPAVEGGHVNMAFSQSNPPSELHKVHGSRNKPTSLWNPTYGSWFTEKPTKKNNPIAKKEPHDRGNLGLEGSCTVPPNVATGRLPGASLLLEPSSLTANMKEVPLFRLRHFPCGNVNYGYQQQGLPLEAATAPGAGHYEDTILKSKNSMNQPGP
T2 sequence (O60674 whole entry): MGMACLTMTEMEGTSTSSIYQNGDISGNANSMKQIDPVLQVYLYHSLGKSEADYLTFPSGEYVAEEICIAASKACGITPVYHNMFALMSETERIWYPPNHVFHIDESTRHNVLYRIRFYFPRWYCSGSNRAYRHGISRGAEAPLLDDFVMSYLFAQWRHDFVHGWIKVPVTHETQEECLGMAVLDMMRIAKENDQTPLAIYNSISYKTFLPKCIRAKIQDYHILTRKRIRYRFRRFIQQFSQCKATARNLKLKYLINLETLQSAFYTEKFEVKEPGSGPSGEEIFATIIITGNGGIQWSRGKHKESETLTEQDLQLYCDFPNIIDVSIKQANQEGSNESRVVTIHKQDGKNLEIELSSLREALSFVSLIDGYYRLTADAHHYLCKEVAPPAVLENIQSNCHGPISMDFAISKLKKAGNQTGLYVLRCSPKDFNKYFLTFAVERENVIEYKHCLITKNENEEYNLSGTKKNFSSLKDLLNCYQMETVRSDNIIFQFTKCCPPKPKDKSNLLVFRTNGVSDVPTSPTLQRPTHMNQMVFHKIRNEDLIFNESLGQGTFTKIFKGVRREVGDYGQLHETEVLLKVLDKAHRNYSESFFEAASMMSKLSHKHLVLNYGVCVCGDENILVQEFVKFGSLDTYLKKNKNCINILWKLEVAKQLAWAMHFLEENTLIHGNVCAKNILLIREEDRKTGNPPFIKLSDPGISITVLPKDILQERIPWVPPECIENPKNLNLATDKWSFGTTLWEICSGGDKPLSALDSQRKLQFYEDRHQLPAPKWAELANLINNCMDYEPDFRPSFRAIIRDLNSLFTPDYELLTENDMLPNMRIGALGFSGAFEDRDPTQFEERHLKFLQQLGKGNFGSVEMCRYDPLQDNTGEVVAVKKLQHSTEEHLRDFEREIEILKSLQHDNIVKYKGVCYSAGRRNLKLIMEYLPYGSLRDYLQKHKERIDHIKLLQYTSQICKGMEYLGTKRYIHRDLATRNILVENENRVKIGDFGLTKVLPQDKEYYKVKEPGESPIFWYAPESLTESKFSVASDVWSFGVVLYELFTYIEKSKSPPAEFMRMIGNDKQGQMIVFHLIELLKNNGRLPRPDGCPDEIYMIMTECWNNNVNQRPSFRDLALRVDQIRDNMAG

`COc1cc2c(cc1Nc1ncc3ccc(-c4ccccc4OC)n3n1)CCN(C[C@@H](C)O)CC2` [Example 991, (R)-1-{7-Methoxy-8-[7-(2-methoxy-phenyl)-pyrrolo[2,1-f][1,2,4]triazin-2-ylamino]-1,2,4,5-tetrahydro-benzo[d]azepin-3-yl}-propan-2-ol]: the figures for the IC50 at ALK (setting [1]) and at JAK2 (setting [2]) were less than 100 nM and 100 to 1000 nM, respectively.
For the molecule `COc1ccccc1-c1ccc2cnc(Nc3cccc(N4CCN(CCO)CC4)c3)nn12` [Example 178, 2-(4-{3-[7-(2-Methoxy-phenyl)-pyrrolo[2,1-f][1,2,4]triazin-2-ylamino]-phenyl}-piperazin-1-yl)-ethanol], the IC50 at ALK (ALK Kinase Inhibition) and on JAK2 (JAK2 Kinase Inhibition) was less than 100 nM each time.
For the molecule `Fc1cc(Nc2ncc3ccc(-c4cccc(Cl)c4)n3n2)ccc1N1CCOCC1` [Example 187, [7-(3-Chloro-phenyl)-pyrrolo[2,1-f][1,2,4]triazin-2-yl]-(3-fluoro-4-morpholin-4-yl-phenyl)-amine], the IC50 was more than 10000 nM on ALK (ALK Kinase Inhibition) and less than 100 nM on JAK2 (JAK2 Kinase Inhibition).
Regarding `COc1cc(C2CCNCC2)ccc1Nc1ncc2ccc(N3CC(c4ccccc4)CC3=O)n2n1` (centres unmarked) [Example 719, 1-[2-(2-Methoxy-4-piperidin-4-yl-phenylamino)-pyrrolo[2,1-f][1,2,4]triazin-7-yl]-4-phenyl-pyrrolidin-2-one], the values for the IC50 on ALK (setting [1]) and at JAK2 (setting [2]) were 100 to 1000 nM and 1000 to 10000 nM, respectively.
On to `COc1ccc(-c2ccc3cnc(Nc4ccc(N5CCN(CC(N)=O)CC5)c(F)c4)nn23)cn1` [Example 1414, 2-(4-{2-Fluoro-4-[7-(6-methoxy-pyridin-3-yl)-pyrrolo[2,1-f][1,2,4]triazin-2-ylamino]-phenyl}-piperazin-1-yl)-acetamide], for which the IC50 on ALK (ALK Kinase Inhibition) is 1000 to 10000 nM; at JAK2 (JAK2 Kinase Inhibition), less than 100 nM.
For the molecule `CN1CCC(c2ccc(Nc3ncc4ccc(-c5ccccc5N(C)S(C)(=O)=O)n4n3)cc2)CC1` [Example 1178, N-Methyl-N-(2-{2-[4-(1-methyl-piperidin-4-yl)-phenylamino]-pyrrolo[2,1-f][1,2,4]triazin-7-yl}-phenyl)-methanesulfonamide], the IC50 on ALK (setting [1]) and at JAK2 (setting [2]) was less than 100 nM each time.
Regarding `Cc1cc(Nc2ncc3ccc(-c4ccccc4N(C)S(C)(=O)=O)n3n2)cc2oc(=O)[nH]c12` [Example 628, N-Methyl-N-{2-[2-(4-methyl-2-oxo-2,3-dihydrobenzooxazol-6-ylamino)-pyrrolo[2,1-f][1,2,4]triazin-7-yl]phenyl}methanesulfonamide], the IC50 on ALK (setting [1]) is 100 to 1000 nM; on JAK2 (setting [2]), less than 100 nM.
For the molecule `COc1cc([C@@H]2CCN(CCF)C[C@@H]2O)ccc1Nc1ncc2ccc(-c3ccccc3OC)n2n1` (racemic) [Example 838, (±)-(3R,4S)-1-(2-Fluoro-ethyl)-4-{3-methoxy-4-[7-(2-methoxy-phenyl)-pyrrolo[2,1-f][1,2,4]triazin-2-ylamino]-phenyl}-piperidin-3-ol], the IC50 at ALK (setting [1]) and on JAK2 (setting [2]) was less than 100 nM throughout.
Consider `CS(=O)(=O)c1ccc(-c2ccc3cnc(Nc4ccc(N5CCCCC5)cc4)nn23)cc1` [Example 61, [7-(4-Methanesulfonyl-phenyl)-pyrrolo[2,1-f][1,2,4]triazin-2-yl]-(4-piperidin-1-yl-phenyl)-amine], for which the values for the IC50 at ALK (ALK Kinase Inhibition) and on JAK2 (JAK2 Kinase Inhibition) were more than 10000 nM and less than 100 nM, respectively.
`COc1cc(N2CCC(N3CCCN(C)CC3)CC2)ccc1Nc1ncc2ccc(-c3ccccc3N(C)S(C)(=O)=O)n2n1` [Example 784, N-[2-(2-{2-Methoxy-4-[4-(4-methyl-[1,4]diazepan-1-yl)-piperidin-1-yl]-phenylamino}-pyrrolo[2,1-f][1,2,4]triazin-7-yl)-phenyl]-N-methyl-methanesulfonamide]: the figures for the IC50 on ALK (setting [1]) and at JAK2 (setting [2]) were less than 100 nM and 100 to 1000 nM, respectively.
`COc1cc(Nc2ncc3ccc(-c4cccc(S(=O)(=O)NC(C)(C)C)c4)n3n2)ccc1C1CCN(CC(N)=O)CC1` [Example 924, 2-(4-{4-[7-(3-tert-Butylsulfamoyl-phenyl)-pyrrolo[2,1-f][1,2,4]triazin-2-ylamino]-2-methoxy-phenyl}-piperidin-1-yl)-acetamide]: the IC50 at ALK (setting [1]) and at JAK2 (setting [2]) was less than 100 nM throughout.
Consider `COc1ccccc1-c1ccc2cnc(Nc3ccc(C4CCN(C)CC4)c(C)c3)nn12` [Example 942, [7-(2-Methoxy-phenyl)-pyrrolo[2,1-f][1,2,4]triazin-2-yl]-[3-methyl-4-(1-methyl-piperidin-4-yl)-phenyl]-amine], for which the IC50 at ALK (setting [1]) and on JAK2 (setting [2]) was less than 100 nM each time.
`COc1cc(N2CCN(C3CCOCC3)CC2)ccc1Nc1ncc2ccc(-c3ccccc3OC)n2n1` [Example 1472, [7-(2-Methoxy-phenyl)-pyrrolo[2,1-f][1,2,4]triazin-2-yl]-{2-methoxy-4-[4-(tetrahydro-pyran-4-yl)-piperazin-1-yl]-phenyl}-amine]: the IC50 at ALK (ALK Kinase Inhibition) and on JAK2 (JAK2 Kinase Inhibition) was less than 100 nM throughout.
Regarding `CNC(=O)c1ccc(-c2ccc3cnc(Nc4ccc(N5CCC(N6CCN(C)CC6)CC5)cc4OC)nn23)cc1` [Example 242, 4-(2-{2-Methoxy-4-[4-(4-methyl-piperazin-1-yl)-piperidin-1-yl]-phenylamino}-pyrrolo[2,1-f][1,2,4]triazin-7-yl)-N-methyl-benzamide], the IC50 at ALK (ALK Kinase Inhibition) and on JAK2 (JAK2 Kinase Inhibition) was less than 100 nM in each case.
Consider `CS(=O)(=O)Nc1cccc(-c2ccc3cnc(Nc4cccc(N5CCOCC5)c4)nn23)c1` [Example 183, N-{3-[2-(3-Morpholin-4-yl-phenylamino)-pyrrolo[2,1-f][1,2,4]triazin-7-yl]-phenyl}-methanesulfonamide], for which the figures for the IC50 at ALK (ALK Kinase Inhibition) and at JAK2 (JAK2 Kinase Inhibition) were 100 to 1000 nM and less than 100 nM, respectively.
Take `CN1CCN(C(=O)c2ccc(Nc3ncc4ccc(-c5ccccc5N(C)S(C)(=O)=O)n4n3)cc2)CC1` [Example 1425, N-Methyl-N-(2-{2-[4-(4-methyl-piperazine-1-carbonyl)-phenylamino]-pyrrolo[2,1-f][1,2,4]triazin-7-yl}-phenyl)-methanesulfonamide]: the IC50 on ALK (ALK Kinase Inhibition) is 100 to 1000 nM; at JAK2 (JAK2 Kinase Inhibition), less than 100 nM.
For the molecule `COc1ccc(-c2ccc3cnc(Nc4cnn(CCN5CCOCC5)c4)nn23)cn1` [Example 1192, [7-(6-Methoxy-pyridin-3-yl)-pyrrolo[2,1-f][1,2,4]triazin-2-yl]-[1-(2-morpholin-4-yl-ethyl)-1H-pyrazol-4-yl]-amine], the values for the IC50 on ALK (setting [1]) and on JAK2 (setting [2]) were 1000 to 10000 nM and less than 100 nM, respectively.
Taken in the same sequence, the figures for `COc1ccccc1-c1ccc2cnc(Nc3ccc(N4CCOCC4)cn3)nn12` [Example 1202, [7-(2-Methoxy-phenyl)-pyrrolo[2,1-f][1,2,4]triazin-2-yl]-(5-morpholin-4-yl-pyridin-2-yl)-amine] were 1000 to 10000 nM and less than 100 nM.
As to `COc1ccc(Cl)cc1-c1ccc2cnc(-n3cnc4cnccc43)nn12` [Example 323, 1-[7-(5-Chloro-2-methoxy-phenyl)-pyrrolo[2,1-f][1,2,4]triazin-2-yl]-1H-imidazo[4,5-c]pyridine], the IC50 on ALK (ALK Kinase Inhibition) is 1000 to 10000 nM; on JAK2 (JAK2 Kinase Inhibition), 100 to 1000 nM.
Take `CN1CCC(c2ccc(Nc3ncc4ccc(-c5cccc(S(=O)(=O)N6CCCCC6)c5)n4n3)cc2)CC1` [Example 905, [4-(1-Methyl-piperidin-4-yl)-phenyl]-{7-[3-(piperidine-1-sulfonyl)-phenyl]-pyrrolo[2,1-f][1,2,4]triazin-2-yl}-amine]: the IC50 at ALK (setting [1]) was 100 to 1000 nM; at JAK2 (setting [2]) it was less than 100 nM.
In the case of `CN(c1ccccc1-c1ccc2cnc(Nc3ccc(Cn4ccnc4)cc3)nn12)S(C)(=O)=O` [Example 621, N-{2-[2-(4-Imidazol-1-ylmethylphenylamino)-pyrrolo[2,1-f][1,2,4]triazin-7-yl]phenyl}-N-methyl-methanesulfonamide], the IC50 at ALK (setting [1]) and at JAK2 (setting [2]) was less than 100 nM in each case.
In the case of `CC(=O)N1CC(C)(C)c2ccc(Nc3ncc4ccc(-c5cccc(S(=O)(=O)NC(C)(C)C)c5)n4n3)cc21` [Example 1388, 3-[2-(1-Acetyl-3,3-dimethyl-2,3-dihydro-1H-indol-6-ylamino)-pyrrolo[2,1-f][1,2,4]triazin-7-yl]-N-tert-butyl-benzenesulfonamide], the IC50 on ALK (ALK Kinase Inhibition) was 100 to 1000 nM; on JAK2 (JAK2 Kinase Inhibition) it was less than 100 nM.
Regarding `COc1cc(CN2CCC(O)CC2)ccc1Nc1ncc2ccc(-c3ccccc3OC)n2n1` [Example 1235, 1-{3-Methoxy-4-[7-(2-methoxy-phenyl)-pyrrolo[2,1-f][1,2,4]triazin-2-ylamino]-benzyl}-piperidin-4-ol], the figures for the IC50 at ALK (setting [1]) and at JAK2 (setting [2]) were less than 100 nM and 100 to 1000 nM, respectively.
On to `COc1ccc(-c2ccc3cnc(Nc4ccc5c(c4)COCCN5C)nn23)cn1` [Example 637, [7-(6-Methoxy-pyridin-3-yl)-pyrrolo[2,1-f][1,2,4]triazin-2-yl]-(1-methyl-1,2,3,5-tetrahydro-benzo[e][1,4]oxazepin-7-yl)-amine], for which the IC50 on ALK (setting [1]) is 1000 to 10000 nM; on JAK2 (setting [2]), less than 100 nM.
Consider `COc1ccccc1-c1ccc2cnc(Nc3ccc(C(C)C)c(NC(C)=O)c3)nn12` [Example 301, N-{2-Isopropyl-5-[7-(2-methoxy-phenyl)-pyrrolo[2,1-f][1,2,4]triazin-2-ylamino]-phenyl}-acetamide], for which the results for the IC50 on ALK (ALK Kinase Inhibition) and at JAK2 (JAK2 Kinase Inhibition) were 100 to 1000 nM and less than 100 nM, respectively.
